Reference: patent US20220145406A1, “BIOMARKERS, AND USES IN TREATMENT OF VIRAL INFECTIONS, INFLAMMATIONS, OR CANCER” (ABIVAX, priority 2018, published 2022)

Test system: CD4+ T cells
Test: RNAseq differential alternative splicing analysis (SUPPA) of cellular genes
Assay type: cell-based, human
Set-up: key to differential splicing Event type, gene ZNF177 / differential splicing Event type, gene FGF22 / differential splicing Event type, gene AL157955.2 / differential splicing Event type, gene TMEM147 / differential splicing Event type, gene ATIC / differential splicing Event type, gene CDRT15 / differential splicing Event type, gene WDR72 / differential splicing Event type, gene GNRHR2 / differential splicing Event type, gene ZNE584 / differential splicing Event type, gene LINC01869 / differential splicing Event type, gene LINC01119: Alternative 5′ splice site (A5); Alternative 3′ splice site (A3); Alt exons: Alternative first and last exons (Altexons); Retained intron (RI)
Description: Buffy coats from HIV-negative individuals were obtained from the local blood donation center in Centre de transfusion sanguine Montpellier. Human peripheral blood mononuclear cells (PBMCs) were isolated by Ficoll (Histopaque, Sigma) gradient centrifugation. CD4+ and CD8+ T cells were purified from PBMCs after Ficoll gradient centrifugation by Human CD4+ beads positive selection and CD8+ beads positive selection, respectively (Miltenyi). PBMCs, CD4+ and CD8+ T cells were grown at 37° C. and 5% CO2 to a density of 1.5×10^6 cells/ml in RPMI GlutaMAX medium (Life Technologies) supplemented with 10% fetal calf serum (FCS) (Thermo Fisher), 40 U/ml of IL2 (PeproTech) and 5 μg/mL of PHA (Roche) for 2 days. Three days later, cells were resuspended at 1.5×10^6 cells/ml in RPMI supplemented with 10% FCS and 40 U/ml IL2 and separated into two parts (infected and uninfected cells). Cells were infected with 80 ng of p24/106 cells of the YU-2 strain for 4 to 6 hours and then rinsed with PBS before medium renewal.
Both infected and uninfected cells were then centrifuged and resuspended to a density of 1.5×10^6 cells/ml in medium supplemented with diluted drug solubilized in DMSO (Sigma) to a final 0.05% DMSO concentration or antiretroviral compounds according to the manufacturer's instructions. Cells were treated for 6 days with a medium renewal at day 3. HIV p24 titration was performed by ELISA from cell culture supernatants with Innotest kit (Ingen) according to the manufacturer's instructions.
A full-detailed report describing the complete analysis was submitted to Gene Expression Omnibus (GEO, https://www.ncbi.nlm.nih.gov/geo/query/acc.cgi?acc=GSE116073). Total RNA extraction was performed according to the Qiagen miRNeasy □ kit. RNA concentrations were determined using Qubit[…] fluorometric quantification and purity by the RNA 6000 Bioanalyzer kit (Agilent). RNA-Seq libraries were constructed with the TruSeq stranded mRNA sample preparation (low-throughput protocol) kit from Illumina, according to the manufacturer's instructions. Aliquots of 1.2 μg of total RNA were used for the construction of the libraries. The final cDNA libraries were validated with a Fragment Analyzer (Advanced Analytical, Ankeny, Iowa) and quantified with a KAPA qPCR kit (Kapa Biosystems, Wilmington, Mass.). On the 8 sequencing lanes of a flow cell V4, the 32 libraries were pooled in equal proportions by sets of 4 libraries per lane, denatured with NaOH and diluted to […] before clustering. Cluster formation and primer hybridization and single-end read, 50-cycle sequencing were performed on the cBot and HiSeq 2500 (Illumina, San Diego, Calif.), respectively. Image analysis and base calling were performed using the HiSeq Control Software with the Real-Time Analysis component. Demultiplexing was performed using Illumina's sequencing analysis software. The quality of the data was assessed using FastQC from the Babraham Institute and the Illumina software SAV (Sequence Analysis Viewer). Potential contaminants were investigated with the FastQ Screen software from the Babraham Institute.
To investigate splicing activity we used SUPPA v2.0.0, a tool developed in Python 3.4 and especially designed for this approach. To study splicing across multiple conditions, we performed three modular operations that were run separately. The first step was to generate events from the annotation file commonly named the GTF file (general […]). The second step was to quantify event inclusion levels (PSIs) from our samples. Finally, differential splicing across multiple conditions was calculated for all replicates.
To generate the different alternative splicing events from an input annotation file (GTF format), the method reads transcript and gene information solely from the “exon” lines in the GTF. It then generates the events and outputs an ‘ioe’ file, which contains the relationship between each event and the transcripts that share this particular event. […]

[1] = ABX464_NI_VS_DMSO_NI, uninfected CD4 T cells

FC(F)(F)Oc1ccc(Nc2ccc3cccc(Cl)c3n2)cc1 [ABX464, 8-chloro-N-(4-(trifluoromethoxy)phenyl)quinolin-2-amine]
differential splicing Event type, gene AL157955.2 [1]: A3 | differential splicing Event type, gene ATIC [1]: A5 | differential splicing Event type, gene CDRT15 [1]: A5 | differential splicing Event type, gene FGF22 [1]: A3 | differential splicing Event type, gene GNRHR2 [1]: RI | differential splicing Event type, gene LINC01119 [1]: A3 | differential splicing Event type, gene LINC01869 [1]: A3 | differential splicing Event type, gene TMEM147 [1]: RI | differential splicing Event type, gene WDR72 [1]: A5 | differential splicing Event type, gene ZNE584 [1]: A3 | differential splicing Event type, gene ZNF177 [1]: A3 | number of common and differential splicing events (infected and uninfected CD4+ T cells treated with ABX464, ΔPSI >0.4, p <0.05): < 10 events
